According to PubChem BioAssay AID179 (DTP/NCI, 2004):
Values joined by “and” are separate entries in the source; they are usually repeats but may differ in a detail not shown here. Equal entries are not always repeated. Active and inactive are the calls of the source.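 How the source made its calls: active means compounds giving half or more protection of infected cells from virus-caused growth loss, again on retest; inactive means the rest.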

Tested on: CEM cells HIV-1 protection, formazan growth assay
Assay: NCI AIDS Antiviral Assay
Details: for IC50: measured here: growth of uninfected CEM cells
Outline: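 Human CEM cells, uninfected and HIV-1-infected, exposed to five drug concentrations; growth measured by soluble formazan assay and scored as percent protection from infection, with protecting compounds retested.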

SMILES | outcome | EC50 | IC50
O=C1CCC2=C1C[C@@H]1CCCO[C@@H]1O2 | inactive |  | 
COC1(OC)CC(CO)(CNc2nc(N)nc(Cl)c2/C=N\O)C1 |  | > 200 µM | 2.69 µM
C/C=C1/C=CC2c3[nH]c4ccccc4c3CCN2C1 (configuration not stated) |  | > 145 µM | 93.3 µM
CC(C)N=C(N)NC#N |  | > 1480 µM | > 1480 µM
Cc1cn(C2CCCCC2O)c(=O)[nH]c1=O (configuration not stated) |  | > 302 µM | > 302 µM
COc1nc(N)c(NC2OCC(O)C(O)C2O)c(=O)n1C (configuration not stated) |  | 195 µM and 182 µM and > 200 µM | 603 µM and 224 µM and > 200 µM
O=C1N[C@@H](O)[C@@H]2ON=C(c3ccccc3)[C@H]12 |  | > 1150 µM | > 1150 µM
CCN(CC)c1ncnc2c1ncn2CCNC(CO)(CO)CO |  | > 200 µM | > 200 µM
O=C(CC(=O)c1ccccc1)C(=O)NC12CC3CC(CC(C3)C1)C2 |  | > 11.5 µM | > 11.5 µM
Cc1nc(N)nc(N)c1CCCc1ccccc1 | inactive |  | 
O=C1C=CC(c2ccccc2)(c2ccccc2)O1 |  | > 200 µM | 151 µM
CC(=O)Oc1c2c(cc3c1C(=O)NC1C3=CC(O)[C@@H](OC(C)=O)[C@H]1OC(C)=O)OCO2 (some centres not stated) | inactive |  | 
N=c1c2c3n(c4c(=O)n(-c5ccccc5)c(=S)n(c(=O)n1-c1ccccc1)c24)CCCCC3 |  | > 100 µM | > 100 µM
NCCCNCCCCN1CCOC1=O |  | > 200 µM | 50.1 µM
C1=C\SS/C=C\SS/C=C\SS/C=C\SS/1 |  | 12.9 µM | 15.1 µM
CCOC(=O)C(N=C(c1ccccc1)c1ccccc1)N(C(=O)OC(C)(C)C)C(=O)OC(C)(C)C (configuration not stated) | inactive |  | 
CCCCNC(=O)CCN(C(=O)O)S(=O)(=O)c1ccc(NC(=O)c2ccccc2)cc1 |  | > 112 µM | > 112 µM
CC(C)(C)c1cc2ccc(C(N)=O)cc2c(=O)[nH]1 |  | > 537 µM | 302 µM
COC(=O)C1CCCN1C(=O)OC(C)(C)C (configuration not stated) |  | 57.5 µM | > 200 µM
CC/C(Cl)=N\OC(=O)Nc1ccc(C#N)cc1 |  | > 200 µM | 18.2 µM
C=C1CN(S(=O)(=O)c2ccc(C)cc2)CCCN(C(=O)OC)CCCN(S(=O)(=O)c2ccc(C)cc2)C1 |  | > 200 µM | 107 µM
COc1ccc(C(C)c2cc3c(cc2OC)OCO3)cc1 (configuration not stated) |  | > 66.1 µM | 0.427 µM

SMILES | outcome | EC50 | IC50
O=C(/C=C/c1ccccc1)NC1C=Nc2ccc(Cl)cc2NC1=O (configuration not stated) |  | > 200 µM | 25.7 µM
CCCCC(C(=O)O)C1=CCCCC1 (configuration not stated) | inactive |  | 
COc1cc(C2c3cc4c(cc3OC(N3CCCCC3)C2C)OCO4)cc(OC)c1O (configuration not stated) |  | > 200 µM | 7.59 µM
c1ccc(-c2c(-c3cccs3)[nH]c(-c3cccs3)c2-c2ccccn2)nc1 |  | > 38 µM | 25.7 µM
NC(N)=N/N=C/C(Cl)(Cl)Cl |  | > 200 µM | > 200 µM
NNC(=O)c1ccccc1NC(=O)/C(=C/c1ccccc1O)NC(=O)c1ccccc1 |  | > 200 µM | > 200 µM
COc1ccccc1C=C1C(=O)NC(=O)NC1=O |  | > 145 µM | > 145 µM
COc1cc2c(c(OC)c1OC)C(=O)[C@H](O)[C@H]2NC(N)=O |  | > 200 µM | 105 µM
O=C1OC(c2cccc3ccc(Br)cc23)c2ccccc21 (configuration not stated) |  | 27.5 µM | 52.5 µM
O=C(Nc1ccn(CCO)c(=O)n1)c1ccccc1 |  | > 692 µM | > 692 µM
c1ccc(NNN2NC(c3ccccc3)C2c2ccccc2)cc1 (configuration not stated) |  | > 200 µM | > 200 µM
O=c1[nH]c2cc(Cl)ccc2nc1/C(=N\O)C(O)c1cccc([N+](=O)[O-])c1 (configuration not stated) |  | > 661 µM | 646 µM
C[C@]12Cc3cn[nH]c3C(=O)C1CC[C@@H]1C2CC[C@@]2(C)C1CC[C@@H]2O (some centres not stated) |  | 20 µM | 21.9 µM
CC(C)c1ccc2c(c1)CCC1C(C)(C)[C@@H](O)CC[C@]21C (some centres not stated) |  | > 66.1 µM | 37.2 µM
O=C(CCCN1CCC2(CC1)C(=NC1CCCCC1)NC(=O)N2c1ccccc1)c1ccc(F)cc1 |  | > 200 µM | 93.3 µM
O=C1CCC(c2nc3cc(Cl)ccc3o2)C(=O)N1 (configuration not stated) |  | > 245 µM | > 245 µM
CC(=O)OCC1OC(N2C(=O)NC(=O)C3C=C4CCCCC4=CC32)CC1OC(C)=O (configuration not stated) |  | > 200 µM | 117 µM
C=CCC(C)(O)CCC(O)(CC=C)CC=C (configuration not stated) |  | > 200 µM | > 200 µM
c1cc(SSc2ccncc2)ccn1 |  | > 200 µM | 25.1 µM
CCC(F)(C(N)=O)C(=O)O (configuration not stated) |  | > 200 µM | > 200 µM
CN1Cc2ccccc2[C@H]2C(c3ccccc3)=NN(c3ccccc3)[C@H]21 |  | > 200 µM | > 200 µM
CCOC1NC(=O)c2ccccc21 (configuration not stated) | inactive |  | > 200 µM

SMILES | outcome | EC50 | IC50
CC(=O)OCC1OC(n2c(-c3ccc(C)cc3)cc(-c3ccccc3)c(C#N)c2=O)C(OC(C)=O)C(OC(C)=O)C1OC(C)=O (configuration not stated) |  | > 11.7 µM | > 11.7 µM
CCOC(=O)c1ncn(CCc2ccc(Cl)cc2)c1C |  | > 200 µM | > 100 µM
CC(=O)O[C@H]1CC[C@]2(C)C3CC[C@]4(C)C([C@H](C)CCCC(C)C)CCC4[C@]3(/C=N/O)n3c(=O)n(-c4ccccc4)c(=O)n3[C@]2(/C=N\O)C1 (some centres not stated) |  | > 200 µM | 11 µM
CCOC(=O)c1c(-c2ccc(OC)cc2)c(C#N)c(=S)n(C2OC(CO)C(O)C(O)C2O)c1-c1ccccc1 (configuration not stated) |  | > 200 µM | 34.7 µM
CCOC(=O)C(C(=O)OCC)=c1sc(=C(C(=O)OCC)C(=O)OCC)s1 | inactive |  | 
CCOC(=O)C1=C(OC(OCC)C(CC)[Se]c2ccccc2)CCC1 (configuration not stated) |  | > 45.7 µM | > 45.7 µM
Cc1ccc(N=c2oc3c(ccc4ccccc43)nc2Nc2ccc(C)cc2)cc1 |  | > 200 µM | > 200 µM
CCOC(=O)/C=C(/OCC)[C@@H]1C(C(=O)c2ccc(Cl)cc2)[C@@H]1/C(=C\C(=O)OCC)OCC (some centres not stated) |  | > 200 µM | 5.89 µM
COc1ccc(/C=C2\N=C(N3CCOCC3)NC2=O)cc1 |  | > 200 µM | > 200 µM
CN(C)c1ccc(/C=C2\CCOC2=O)cc1 |  | > 17.4 µM | > 17.4 µM
CCOC1=NC(C(F)(F)F)(C(F)(F)F)N=C(N2CCOCC2)O1 |  | > 200 µM | > 200 µM
COc1ccc(/C=N/Nc2nc3ccccc3c(=O)n2-c2ccccc2)cc1 |  | > 200 µM | > 200 µM
CCCCCCc1cc(C(=O)Nc2cccc(C(F)(F)F)c2)nc(N)n1 | inactive |  | 
CC(=O)Nc1c(C#N)c2n(c1C(=O)Nc1ccccc1)CCC2 |  | > 200 µM | > 200 µM
Nc1ccc(/C=C/c2ccc(N=Nc3cc(S(=O)(=O)O)c4cccnc4c3O)cc2S(=O)(=O)O)c(S(=O)(=O)O)c1 |  | 34.7 µM | > 200 µM
O=C(NC1=Nc2c(ncn2COCCO)S(=O)(=O)[N-]1)c1ccccc1.[Ag+] |  | > 200 µM | 3.55 µM
CC(O)C1CC1(CO)CNc1cc(Cl)nc(N)n1 (configuration not stated) |  | > 200 µM | > 200 µM
Cc1nnc(N)nc1/C=C\c1ccc(Cl)cc1Cl |  | > 200 µM | 50.1 µM
CCOC(=O)/C(=C\c1cccc(F)c1)[Se]c1ccccc1 |  | > 38.9 µM | > 38.9 µM
COc1c(Cl)cc(Cc2cc(C(=CCC[C@H]3CC[C@@]4(C)[C@@H](CC[C@@H]5[C@@H]4CC[C@]4(C)[C@@H](C(C)CCCC(C)C)CC[C@@H]54)C3)c3cc(Cc4cc(Cl)c(OC)c(C(=O)O)c4)c(OC)c(C(=O)O)c3)cc(C(=O)O)c2OC)cc1C(=O)O (some centres not stated) |  | 16.2 µM | 107 µM
CNC(=S)OCCC(C)CCCC(C)C (configuration not stated) | inactive |  | 
